ChEMBL document CHEMBL3244194, “beta-Adrenoceptor blocking activity of halogenated thienylethanolamine derivatives” (J Med Chem, 1977)
Activity calls are given as the source filed them. The calls are words filed in the database; no cut-off is given here.

Legend:
Rattus norvegicus [1] = experiment: In vivo inhibition of beta-adrenoceptor in Wistar rat assessed as inhibition of isoproterenol-induced tachycardia at 4 mg/kg, iv relative to control; format: functional
Rattus norvegicus [2] = experiment: In vivo inhibition of beta-adrenoceptor in Wistar rat assessed as decrease in heart rate at 4 mg/kg, iv relative to control; format: functional
[3] = Acute toxicity in iv dosed mouse; conditions: in vivo
Felis catus [4] = experiment: In vivo inhibition of beta-adrenoceptor in cat assessed as inhibition of isoproterenol-induced tachycardia at 0.1 mg/kg, iv relative to control; format: functional
Felis catus [5] = experiment: In vivo inhibition of beta-adrenoceptor in cat assessed as inhibition of isoproterenol-induced tachycardia at 1 mg/kg, iv relative to control; format: functional
Felis catus [6] = experiment: In vivo inhibition of beta-adrenoceptor in cat assessed as inhibition of isoproterenol-induced hypotension at 0.1 mg/kg, iv relative to control; format: functional
Felis catus [7] = experiment: In vivo inhibition of beta-adrenoceptor in cat assessed as inhibition of isoproterenol-induced hypotension at 1 mg/kg, iv relative to control; format: functional
Cavia porcellus [8] = experiment: In vivo inhibition of beta-adrenoceptor in histamine-treated guinea pig assessed as inhibition of isoproterenol-induced bronchodilator effect at 0.1 mg/kg, iv administered 3 mins prior to histamine/isoproterenol challenge relative to control; format: functional
Mus musculus [9] = experiment: Local anesthetic activity in ICR Swiss mouse assessed as inhibition of pain reflex response at 0.5%, id relative to control; format: functional
Mus musculus [10] = experiment: Local anesthetic activity in ICR Swiss mouse assessed as inhibition of pain reflex response at 1%, id relative to control; format: functional, organism-based
Felis catus [11] = experiment: In vivo inhibition of beta-adrenoceptor in cat assessed as inhibition of isoproterenol-induced tachycardia at 0.05 mg/kg, iv relative to control; format: functional
Cavia porcellus [12] = experiment: In vivo inhibition of beta-adrenoceptor in histamine-treated guinea pig assessed as inhibition of isoproterenol-induced bronchodilator effect at 0.01 mg/kg, iv administered 3 mins prior to histamine/isoproterenol challenge relative to control; format: functional, organism-based; design: dose 0.01 mg/kg

CC(C)NCC(O)c1sccc1Cl (racemic)
inhibition in vivo at 4 mg/kg (Rattus norvegicus [1]): 0%
inhibition in vivo at 4 mg/kg (Rattus norvegicus [2]): 0%
LD50 [3]: 38 mg/kg

CC(C)(C)NCC(O)c1sccc1Cl (racemic)
inhibition in vivo at 4 mg/kg (Rattus norvegicus [1]): 0%
inhibition in vivo at 4 mg/kg (Rattus norvegicus [2]): 0%
LD50 [3]: 25 mg/kg

CC(C)NCC(O)c1cc(Cl)cs1 (racemic)
inhibition in vivo at 4 mg/kg (Rattus norvegicus [1]): 86%
inhibition in vivo at 4 mg/kg (Rattus norvegicus [2]): 8%
inhibition in vivo at 0.1 mg/kg (Felis catus [4]): 62%
inhibition in vivo at 1 mg/kg (Felis catus [5]): 90%
inhibition in vivo at 0.1 mg/kg (Felis catus [6]): 57%
inhibition in vivo at 1 mg/kg (Felis catus [7]): 75%
LD50 [3]: 35 mg/kg

CC(C)(C)NCC(O)c1cc(Cl)cs1 (racemic)
inhibition in vivo at 4 mg/kg (Rattus norvegicus [1]): 53%
inhibition in vivo at 4 mg/kg (Rattus norvegicus [2]): 6%
LD50 [3]: 38 mg/kg

CC(C)NCC(O)c1sc(Cl)cc1Cl (racemic)
inhibition in vivo at 4 mg/kg (Rattus norvegicus [1]): 70%
inhibition in vivo at 4 mg/kg (Rattus norvegicus [2]): 28%
LD50 [3]: 35 mg/kg

CC(C)(C)NCC(O)c1sc(Cl)cc1Cl (racemic)
inhibition in vivo at 4 mg/kg (Rattus norvegicus [1]): 75%
inhibition in vivo at 4 mg/kg (Rattus norvegicus [2]): 32%
inhibition in vivo at 0.1 mg/kg (Felis catus [4]): 65%
inhibition in vivo at 1 mg/kg (Felis catus [5]): 74%
inhibition in vivo at 0.1 mg/kg (Felis catus [6]): 55%
inhibition in vivo at 1 mg/kg (Felis catus [7]): 65%
LD50 [3]: 30 mg/kg

CC(C)NCC(O)c1sc(Cl)c(Cl)c1Cl (racemic)
inhibition in vivo at 4 mg/kg (Rattus norvegicus [1]): 90%
inhibition in vivo at 4 mg/kg (Rattus norvegicus [2]): 20%
inhibition in vivo at 0.1 mg/kg (Felis catus [4]): 58%
inhibition in vivo at 1 mg/kg (Felis catus [5]): 100%
inhibition in vivo at 0.1 mg/kg (Felis catus [6]): 52%
inhibition in vivo at 1 mg/kg (Felis catus [7]): 85%
LD50 [3]: 35 mg/kg

CC(C)(C)NCC(O)c1sc(Cl)c(Cl)c1Cl (racemic)
inhibition in vivo at 4 mg/kg (Rattus norvegicus [1]): 89%
inhibition in vivo at 4 mg/kg (Rattus norvegicus [2]): 26%
inhibition in vivo at 0.1 mg/kg (Felis catus [4]): 69%
inhibition in vivo at 1 mg/kg (Felis catus [5]): 98%
inhibition in vivo at 0.1 mg/kg (Felis catus [6]): 87%
inhibition in vivo at 1 mg/kg (Felis catus [7]): 100%
inhibition in vivo at 0.1 mg/kg (Cavia porcellus [8]): 100%
inhibition (INH) (Mus musculus [9]): 52%
local anesthetic activity (active/inactive) (Mus musculus [10]): Active
LD50 [3]: 40 mg/kg

CC(C)NCC(O)c1ccc(Br)s1.Cl (racemic)
inhibition in vivo at 4 mg/kg (Rattus norvegicus [1]): 87%
inhibition in vivo at 4 mg/kg (Rattus norvegicus [2]): 11%
inhibition in vivo at 0.1 mg/kg (Felis catus [4]): 67.5%
inhibition in vivo at 1 mg/kg (Felis catus [5]): 82%
inhibition in vivo at 0.1 mg/kg (Felis catus [6]): 50%
inhibition in vivo at 1 mg/kg (Felis catus [7]): 72%
inhibition (INH) (Mus musculus [9]): 52%
local anesthetic activity (active/inactive) (Mus musculus [10]): Active
LD50 [3]: 45 mg/kg

CC(C)(C)NCC(O)c1ccc(Br)s1 (racemic)
inhibition in vivo at 4 mg/kg (Rattus norvegicus [1]): 55.5%
inhibition in vivo at 4 mg/kg (Rattus norvegicus [2]): 8%
LD50 [3]: 27 mg/kg

CC(C)NCC(O)c1sccc1Br (racemic)
inhibition in vivo at 4 mg/kg (Rattus norvegicus [1]): 0%
inhibition in vivo at 4 mg/kg (Rattus norvegicus [2]): 0%
LD50 [3]: 35 mg/kg

CC(C)(C)NCC(O)c1sccc1Br (racemic)
inhibition in vivo at 4 mg/kg (Rattus norvegicus [1]): 12.5%
inhibition in vivo at 4 mg/kg (Rattus norvegicus [2]): 10%
LD50 [3]: 25 mg/kg

CC(C)NCC(O)c1cc(Br)cs1 (racemic)
inhibition in vivo at 4 mg/kg (Rattus norvegicus [1]): 89.5%
inhibition in vivo at 4 mg/kg (Rattus norvegicus [2]): 11%
inhibition in vivo at 0.1 mg/kg (Felis catus [4]): 70%
inhibition in vivo at 1 mg/kg (Felis catus [5]): 90%
inhibition in vivo at 0.1 mg/kg (Felis catus [6]): 53%
inhibition in vivo at 1 mg/kg (Felis catus [7]): 82%
LD50 [3]: 42 mg/kg

CC(C)(C)NCC(O)c1cc(Br)cs1 (racemic)
inhibition in vivo at 4 mg/kg (Rattus norvegicus [1]): 50%
inhibition in vivo at 4 mg/kg (Rattus norvegicus [2]): 17%
inhibition in vivo at 0.1 mg/kg (Felis catus [4]): 33%
inhibition in vivo at 1 mg/kg (Felis catus [5]): 67%
inhibition in vivo at 0.1 mg/kg (Felis catus [6]): 0%
inhibition in vivo at 1 mg/kg (Felis catus [7]): 50%
inhibition in vivo at 0.1 mg/kg (Cavia porcellus [8]): 25%
LD50 [3]: 35 mg/kg

CC(C)NCC(O)c1cc(Br)c(Br)s1.Cl (racemic)
inhibition in vivo at 4 mg/kg (Rattus norvegicus [1]): 100%
inhibition in vivo at 4 mg/kg (Rattus norvegicus [2]): 25%
inhibition in vivo at 0.1 mg/kg (Felis catus [4]): 92.5%
inhibition in vivo at 1 mg/kg (Felis catus [5]): 100%
inhibition in vivo at 0.1 mg/kg (Felis catus [6]): 75%
inhibition in vivo at 1 mg/kg (Felis catus [7]): 100%
inhibition in vivo at 0.05 mg/kg (Felis catus [11]): 78%
inhibition in vivo at 0.1 mg/kg (Cavia porcellus [8]): 40%
inhibition (Cavia porcellus [12]): inactive
inhibition (INH) (Mus musculus [9]): 72.5%
local anesthetic activity (active/inactive) (Mus musculus [10]): Active
LD50 [3]: 45 mg/kg

CC(C)(C)NCC(O)c1cc(Br)c(Br)s1 (racemic)
inhibition in vivo at 4 mg/kg (Rattus norvegicus [1]): 92%
inhibition in vivo at 4 mg/kg (Rattus norvegicus [2]): 18%
inhibition in vivo at 0.1 mg/kg (Felis catus [4]): 87.5%
inhibition in vivo at 1 mg/kg (Felis catus [5]): 100%
inhibition in vivo at 0.1 mg/kg (Felis catus [6]): 58%
inhibition in vivo at 1 mg/kg (Felis catus [7]): 95%
inhibition in vivo at 0.05 mg/kg (Felis catus [11]): 61%
inhibition in vivo at 0.1 mg/kg (Cavia porcellus [8]): 100%
inhibition (INH) (Mus musculus [9]): 100%
local anesthetic activity (active/inactive) (Mus musculus [10]): Active
LD50 [3]: 38 mg/kg

CC(C)NCC(O)c1sc(Br)cc1Br (racemic)
inhibition in vivo at 4 mg/kg (Rattus norvegicus [1]): 77.5%
inhibition in vivo at 4 mg/kg (Rattus norvegicus [2]): 14%
LD50 [3]: 35 mg/kg

CC(C)(C)NCC(O)c1sc(Br)cc1Br (racemic)
inhibition in vivo at 4 mg/kg (Rattus norvegicus [1]): 78%
inhibition in vivo at 4 mg/kg (Rattus norvegicus [2]): 17%
inhibition in vivo at 0.1 mg/kg (Felis catus [4]): 50%
inhibition in vivo at 1 mg/kg (Felis catus [5]): 88%
inhibition in vivo at 0.1 mg/kg (Felis catus [6]): 45%
inhibition in vivo at 1 mg/kg (Felis catus [7]): 89%
inhibition (INH) (Mus musculus [9]): 82%
local anesthetic activity (active/inactive) (Mus musculus [10]): Active
LD50 [3]: 42 mg/kg

CC(C)NCC(O)c1scc(Br)c1Br.Cl (racemic)
inhibition in vivo at 4 mg/kg (Rattus norvegicus [1]): 92%
inhibition in vivo at 4 mg/kg (Rattus norvegicus [2]): 10%
LD50 [3]: 27 mg/kg

CC(C)(C)NCC(O)c1scc(Br)c1Br (racemic)
inhibition in vivo at 4 mg/kg (Rattus norvegicus [1]): 95%
inhibition in vivo at 4 mg/kg (Rattus norvegicus [2]): 36%
inhibition in vivo at 0.1 mg/kg (Felis catus [4]): 53%
inhibition in vivo at 1 mg/kg (Felis catus [5]): 92%
inhibition in vivo at 0.1 mg/kg (Felis catus [6]): 64%
inhibition in vivo at 1 mg/kg (Felis catus [7]): 97%
inhibition in vivo at 0.1 mg/kg (Cavia porcellus [8]): 100%
inhibition (INH) (Mus musculus [9]): 75%
local anesthetic activity (active/inactive) (Mus musculus [10]): Active
LD50 [3]: 28 mg/kg

CC(C)NCC(O)c1sc(Br)c(Br)c1Br (racemic)
inhibition in vivo at 4 mg/kg (Rattus norvegicus [1]): 75%
inhibition in vivo at 4 mg/kg (Rattus norvegicus [2]): 10%
inhibition in vivo at 0.1 mg/kg (Felis catus [4]): 50%
inhibition in vivo at 1 mg/kg (Felis catus [5]): 95%
inhibition in vivo at 0.1 mg/kg (Felis catus [6]): 65%
inhibition in vivo at 1 mg/kg (Felis catus [7]): 88%
inhibition (INH) (Mus musculus [9]): 40%
local anesthetic activity (active/inactive) (Mus musculus [10]): Active
LD50 [3]: 35 mg/kg

CC(C)(C)NCC(O)c1sc(Br)c(Br)c1Br (racemic)
inhibition in vivo at 4 mg/kg (Rattus norvegicus [1]): 90%
inhibition in vivo at 4 mg/kg (Rattus norvegicus [2]): 12%
inhibition in vivo at 0.1 mg/kg (Felis catus [4]): 72.5%
inhibition in vivo at 1 mg/kg (Felis catus [5]): 100%
inhibition in vivo at 0.1 mg/kg (Felis catus [6]): 77.5%
inhibition in vivo at 1 mg/kg (Felis catus [7]): 100%
LD50 [3]: 32 mg/kg

CC(C)NCC(O)COc1cccc2ccccc12 (stereo not given) [PROPRANOLOL]
inhibition in vivo at 4 mg/kg (Rattus norvegicus [1]): 95%
inhibition in vivo at 4 mg/kg (Rattus norvegicus [2]): 32%
inhibition in vivo at 0.1 mg/kg (Felis catus [4]): 87%
inhibition in vivo at 1 mg/kg (Felis catus [5]): 100%
inhibition in vivo at 0.1 mg/kg (Felis catus [6]): 85%
inhibition in vivo at 1 mg/kg (Felis catus [7]): 100%
inhibition in vivo at 0.1 mg/kg (Cavia porcellus [8]): 100%
inhibition (Cavia porcellus [12]): Active
inhibition (INH) (Mus musculus [9]): 93%
local anesthetic activity (active/inactive) (Mus musculus [10]): Active
